The NIST ThermoML archive (doi:10.1016/j.jct.2017.08.035)
± gives the expanded uncertainty stated by the source.

Test: wn = mass fraction of the nth substance listed
Settings: for surface tension liquid-gas: Maximal bubble pressure; for mass density: 100 kPa, Liquid, Vibrating tube method

CCn1cc[n+](CCOC)c1.O=S(=O)([O-])C(F)(F)F + O
Settings | mass density, w2 = 0.00185 [kg/m3] | mass density, w2 = 0.0038 [kg/m3] | mass density, w2 = 0.00537 [kg/m3] | mass density, w2 = 0.00665 [kg/m3] | mass density, w2 = 0.00891 [kg/m3] | surface tension liquid-gas, w2 = 0.0016 [mN/m] | surface tension liquid-gas, w2 = 0.00284 [mN/m] | surface tension liquid-gas, w2 = 0.00419 [mN/m] | surface tension liquid-gas, w2 = 0.0056 [mN/m] | surface tension liquid-gas, w2 = 0.007 [mN/m]
298.15 K | 1355.32 ± 2.4 | 1354.72 ± 2.4 | 1354.29 ± 2.4 | 1353.79 ± 2.4 | 1353.19 ± 2.4 | 38.2 ± 0.4 | 38.4 ± 0.4 | 38.6 ± 0.4 | 38.8 ± 0.4 | 39 ± 0.4
303.15 K | 1351.04 ± 2.4 | 1350.44 ± 2.4 | 1350 ± 2.4 | 1349.52 ± 2.4 | 1348.89 ± 2.4 | 37.9 ± 0.4 | 38.1 ± 0.4 | 38.3 ± 0.4 | 38.4 ± 0.4 | 38.6 ± 0.4
308.15 K | 1346.78 ± 2.4 | 1346.18 ± 2.4 | 1345.72 ± 2.4 | 1345.26 ± 2.3 | 1344.62 ± 2.3 | 37.6 ± 0.4 | 37.8 ± 0.4 | 37.9 ± 0.4 | 38.1 ± 0.4 | 38.3 ± 0.4
313.15 K | 1342.54 ± 2.4 | 1341.93 ± 2.3 | 1341.46 ± 2.3 | 1341.03 ± 2.3 | 1340.36 ± 2.3 | 37.3 ± 0.4 | 37.5 ± 0.4 | 37.7 ± 0.4 | 37.9 ± 0.4 | 38.1 ± 0.4
318.15 K | 1338.31 ± 2.3 | 1337.7 ± 2.3 | 1337.22 ± 2.3 | 1336.82 ± 2.3 | 1336.12 ± 2.3 | 37.1 ± 0.4 | 37.3 ± 0.4 | 37.5 ± 0.4 | 37.7 ± 0.4 | 37.9 ± 0.4
323.15 K | 1334.1 ± 2.3 | 1333.49 ± 2.3 | 1333 ± 2.3 | 1332.62 ± 2.3 | 1331.9 ± 2.3 | 36.8 ± 0.4 | 37 ± 0.4 | 37.2 ± 0.4 | 37.5 ± 0.4 | 37.7 ± 0.4
328.15 K | 1329.9 ± 2.3 | 1329.3 ± 2.3 | 1328.79 ± 2.3 | 1328.44 ± 2.3 | 1327.7 ± 2.3 | 36.5 ± 0.4 | 36.7 ± 0.4 | 36.9 ± 0.4 | 37.1 ± 0.4 | 37.3 ± 0.4
333.15 K | 1325.72 ± 2.3 | 1325.11 ± 2.3 | 1324.6 ± 2.3 | 1324.26 ± 2.3 | 1323.51 ± 2.3 | 36.3 ± 0.4 | 36.5 ± 0.4 | 36.7 ± 0.4 | 36.9 ± 0.4 | 37.1 ± 0.4
338.15 K | 1321.54 ± 2.3 | 1320.94 ± 2.3 | 1320.43 ± 2.3 | 1320.1 ± 2.3 | 1319.34 ± 2.3 | 36 ± 0.4 | 36.2 ± 0.4 | 36.3 ± 0.4 | 36.5 ± 0.4 | 36.7 ± 0.4

CC(=O)[O-].CCn1cc[n+](CCOC)c1 [1-ethyl-3-(2-methoxyethyl)imidazolium acetate] + O
Settings | mass density, w2 = 0.00822 [kg/m3] | mass density, w2 = 0.00966 [kg/m3] | mass density, w2 = 0.01112 [kg/m3] | mass density, w2 = 0.01254 [kg/m3] | mass density, w2 = 0.01399 [kg/m3] | surface tension liquid-gas, w2 = 0.00188 [mN/m] | surface tension liquid-gas, w2 = 0.0034 [mN/m] | surface tension liquid-gas, w2 = 0.00488 [mN/m] | surface tension liquid-gas, w2 = 0.00638 [mN/m] | surface tension liquid-gas, w2 = 0.00792 [mN/m]
298.15 K | 1193.01 ± 2.3 | 1193.1 ± 2.3 | 1193.21 ± 2.3 | 1193.32 ± 2.3 | 1193.44 ± 2.3 | 46.3 ± 0.5 | 46.5 ± 0.5 | 46.7 ± 0.5 | 47 ± 0.5 | 47.3 ± 0.5
303.15 K | 1189.68 ± 2.3 | 1189.78 ± 2.3 | 1189.89 ± 2.3 | 1189.98 ± 2.3 | 1190.11 ± 2.3 | 46 ± 0.5 | 46.2 ± 0.5 | 46.4 ± 0.5 | 46.7 ± 0.5 | 47 ± 0.5
308.15 K | 1186.36 ± 2.3 | 1186.45 ± 2.3 | 1186.56 ± 2.3 | 1186.66 ± 2.3 | 1186.79 ± 2.3 | 45.7 ± 0.5 | 45.9 ± 0.5 | 46.2 ± 0.5 | 46.4 ± 0.5 | 46.7 ± 0.5
313.15 K | 1183.05 ± 2.3 | 1183.14 ± 2.3 | 1183.25 ± 2.3 | 1183.35 ± 2.3 | 1183.48 ± 2.3 | 45.4 ± 0.5 | 45.7 ± 0.5 | 45.9 ± 0.5 | 46.1 ± 0.5 | 46.4 ± 0.5
318.15 K | 1179.76 ± 2.3 | 1179.85 ± 2.3 | 1179.96 ± 2.3 | 1180.06 ± 2.3 | 1180.19 ± 2.3 | 45.1 ± 0.5 | 45.3 ± 0.5 | 45.6 ± 0.5 | 45.8 ± 0.5 | 46.1 ± 0.5
323.15 K | 1176.48 ± 2.3 | 1176.57 ± 2.3 | 1176.68 ± 2.3 | 1176.78 ± 2.3 | 1176.91 ± 2.3 | 44.8 ± 0.5 | 45.1 ± 0.5 | 45.3 ± 0.5 | 45.5 ± 0.5 | 45.8 ± 0.5
328.15 K | 1173.21 ± 2.3 | 1173.31 ± 2.3 | 1173.42 ± 2.3 | 1173.52 ± 2.3 | 1173.65 ± 2.3 | 44.6 ± 0.5 | 44.9 ± 0.5 | 45.1 ± 0.5 | 45.3 ± 0.5 | 45.6 ± 0.5
333.15 K | 1169.97 ± 2.3 | 1170.06 ± 2.3 | 1170.17 ± 2.3 | 1170.27 ± 2.3 | 1170.4 ± 2.3 | 44.4 ± 0.5 | 44.7 ± 0.5 | 44.8 ± 0.5 | 45.1 ± 0.5 | 45.3 ± 0.5
338.15 K | 1166.74 ± 2.3 | 1166.82 ± 2.3 | 1166.93 ± 2.3 | 1167.03 ± 2.3 | 1167.16 ± 2.3 | 44.2 ± 0.5 | 44.5 ± 0.5 | 44.6 ± 0.5 | 44.9 ± 0.5 | 45.1 ± 0.5

CCn1cc[n+](CCOC)c1.N#C[N-]C#N [1-ethyl-3-(2-methoxyethyl)imidazolium dicyanamide] + O
Settings | mass density, w2 = 0.00148 [kg/m3] | mass density, w2 = 0.00277 [kg/m3] | mass density, w2 = 0.00434 [kg/m3] | mass density, w2 = 0.0055 [kg/m3] | mass density, w2 = 0.00719 [kg/m3] | surface tension liquid-gas, w2 = 0.00031 [mN/m] | surface tension liquid-gas, w2 = 0.00175 [mN/m] | surface tension liquid-gas, w2 = 0.00317 [mN/m] | surface tension liquid-gas, w2 = 0.00461 [mN/m] | surface tension liquid-gas, w2 = 0.00609 [mN/m]
298.15 K | 1113.35 ± 2.3 | 1113.18 ± 2.3 | 1112.96 ± 2.3 | 1112.77 ± 2.3 | 1112.46 ± 2.3 | 44.7 ± 0.5 | 44.9 ± 0.5 | 45.3 ± 0.5 | 45.6 ± 0.5 | 45.9 ± 0.5
303.15 K | 1109.96 ± 2.3 | 1109.78 ± 2.3 | 1109.57 ± 2.3 | 1109.37 ± 2.3 | 1109.06 ± 2.3 | 44.4 ± 0.5 | 44.7 ± 0.5 | 45 ± 0.5 | 45.3 ± 0.5 | 45.6 ± 0.5
308.15 K | 1106.58 ± 2.3 | 1106.41 ± 2.3 | 1106.19 ± 2.3 | 1106 ± 2.3 | 1105.69 ± 2.3 | 44.1 ± 0.5 | 44.4 ± 0.5 | 44.7 ± 0.5 | 45 ± 0.5 | 45.3 ± 0.5
313.15 K | 1103.23 ± 2.3 | 1103.05 ± 2.3 | 1102.83 ± 2.3 | 1102.64 ± 2.3 | 1102.33 ± 2.3 | 43.8 ± 0.5 | 44.1 ± 0.5 | 44.4 ± 0.5 | 44.7 ± 0.5 | 45 ± 0.5
318.15 K | 1099.89 ± 2.3 | 1099.72 ± 2.3 | 1099.5 ± 2.3 | 1099.3 ± 2.3 | 1098.99 ± 2.3 | 43.5 ± 0.5 | 43.8 ± 0.5 | 44.1 ± 0.5 | 44.4 ± 0.5 | 44.7 ± 0.5
323.15 K | 1096.58 ± 2.3 | 1096.4 ± 2.3 | 1096.18 ± 2.3 | 1095.98 ± 2.3 | 1095.66 ± 2.3 | 43.2 ± 0.5 | 43.5 ± 0.5 | 43.8 ± 0.5 | 44.2 ± 0.5 | 44.4 ± 0.5
328.15 K | 1093.27 ± 2.3 | 1093.1 ± 2.3 | 1092.88 ± 2.3 | 1092.68 ± 2.3 | 1092.36 ± 2.3 | 43 ± 0.5 | 43.3 ± 0.5 | 43.6 ± 0.5 | 44 ± 0.5 | 44.2 ± 0.5
333.15 K | 1090 ± 2.3 | 1089.82 ± 2.3 | 1089.59 ± 2.3 | 1089.4 ± 2.3 | 1089.08 ± 2.3 | 42.7 ± 0.4 | 43.1 ± 0.5 | 43.4 ± 0.5 | 43.7 ± 0.5 | 44 ± 0.5
338.15 K | 1086.74 ± 2.3 | 1086.56 ± 2.3 | 1086.33 ± 2.3 | 1086.13 ± 2.3 | 1085.81 ± 2.3 | 42.4 ± 0.4 | 42.8 ± 0.4 | 43.1 ± 0.5 | 43.4 ± 0.5 | 43.7 ± 0.5
